Measured values taken from patent publication EP2951180B1, “2,6,7,8 SUBSTITUTED PURINES AS HDM2 INHIBITORS” (Merck Sharp & Dohme Corp., priority 2013, dated 2014).

molecular target: T1, HDM2 (Homo sapiens, UniProt Q00987); assay: FRET assay (HDM2 inhibition; method not described in this part); assay type: binding; conditions: Table 2
T1 construct: Thioredoxin (N); made in house; host or cells: E. coli strain BL21(DE3)Rosetta
T1 sequence (Q00987 17-125): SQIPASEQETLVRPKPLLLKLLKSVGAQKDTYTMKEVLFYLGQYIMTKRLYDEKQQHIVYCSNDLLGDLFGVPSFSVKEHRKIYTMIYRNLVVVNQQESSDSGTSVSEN

Going from COc1ccc(-c2nc3nc(C(=O)O)nc(N[C@H](C)C4CC4)c3n2Cc2ccc(C(F)(F)F)cc2)cc1 [Example 2.21, 6-{[(1R)-1-cyclopropylethyl]amino}-8-(4-methoxyphenyl)-7-[4-(trifluoromethyl)benzyl]-7H-purine-2-carboxylic acid] to Cc1ccc(-c2nc3nc(C(=O)O)nc(N[C@H](C)C4CC4)c3n2Cc2ccc(C(F)(F)F)cc2)cc1 [Example 2.33, 6-{[(1R)-1-cyclopropylethyl]amino}-8-(4-methylphenyl)-7-[4-(trifluoromethyl)benzyl]-7H-purine-2-carboxylic acid], the IC50 rises from 253 nM to 401 nM (1.6-fold).

Compared with C[C@@H](Nc1nc(C(=O)O)nc2nc(-c3cccc(Cl)c3)n(Cc3ccc(C(F)(F)F)cc3)c12)C1CC1 [Example 2.22, 8-(3-chlorophenyl)-6-{[(1R)-1-cyclopropylethyl]amino}-7-[4-(trifluoromethyl)benzyl]-7H-purine-2-carboxylic acid], C[C@@H](Nc1nc(C(=O)O)nc2nc(-c3cccc(Cl)c3)n(Cc3ccc(C(F)(F)F)cc3)c12)C1CCC1 [Example 2.40, 8-(3-chlorophenyl)-6-{[(1R)-1-cyclobutylethyl]amino}-7-[4-(trifluoromethyl)benzyl]-7H-purine-2-carboxylic acid] is 4.1-fold lower in IC50: 124 nM for the first, 30 nM for the second.

CCc1cccc(-c2nc3nc(C(=O)O)nc(N[C@H](C)C4CCC4)c3n2Cc2ccc(C(F)(F)F)cc2)c1 [Example 2.23, 6-{[(1R)-1-cyclobutylethyl]amino}-8-(3-ethylphenyl)-7-[4-(trifluoromethyl)benzyl]-7H-purine-2-carboxylic acid] and CC(C)c1cccc(-c2nc3nc(C(=O)O)nc(N[C@H](C)C4CCC4)c3n2Cc2ccc(C(F)(F)F)cc2)c1 [Example 2.24, 6-{[(1R)-1-cyclobutylethyl]amino}-8-[3-(1-methylethyl)phenyl]-7-[4-(trifluoromethyl)benzyl]-7H-purine-2-carboxylic acid] are within 1.5-fold of each other in IC50: 16.7 nM for the first, 14.7 nM for the second.

Compared with C[C@@H](Nc1nc(C(=O)O)nc2nc(-c3cccc(C(C)(C)C)c3)n(Cc3ccc(C(F)(F)F)cc3)c12)C1CCC1 [Example 2.25, 8-(3-tert-butylphenyl)-6-{[(1R)-1-cyclobutylethyl]amino}-7-[4-(trifluoromethyl)benzyl]-7H-purine-2-carboxylic acid], C[C@@H](Nc1nc(C(=O)O)nc2nc(-c3cccc(C(F)(F)F)c3)n(Cc3ccc(C(F)(F)F)cc3)c12)C1CCC1 [Example 2.38, 6-{[(1R)-1-cyclobutylethyl]amino}-7-[4-(trifluoromethyl)benzyl]-8-[3-(trifluoromethyl)phenyl]-7H-purine-2-carboxylic acid] is 5.3-fold lower in IC50: 59.1 nM for the first, 11.2 nM for the second. The second is the more potent here.

First: C[C@@H](Nc1nc(C(=O)O)nc2nc(-c3cccc(OC(F)(F)F)c3)n(Cc3ccc(C(F)(F)F)cc3)c12)C1CC1 [Example 2.26, 6-{[(1R)-1-cyclopropylethyl]amino}-8-[3-(trifluoromethoxy)phenyl]-7-[4-(trifluoromethyl)benzyl]-7H-purine-2-carboxylic acid]
Second: C[C@@H](Nc1nc(C(=O)O)nc2nc(-c3cccc(OC(F)(F)F)c3)n(Cc3ccc(C(F)(F)F)cc3)c12)C1CCC1 [Example 2.39, 6-{[(1R)-1-cyclobutylethyl]amino}-8-[3-(trifluoromethoxy)phenyl]-7-[4-(trifluoromethyl)benzyl]-7H-purine-2-carboxylic acid]
The IC50 of the first is 11-fold higher: 550 nM for the first, 52 nM for the second.

First: C[C@@H](Nc1nc(C(=O)O)nc2nc(-c3ccc(OC(F)(F)F)cc3)n(Cc3ccc(C(F)(F)F)cc3)c12)C1CC1 [Example 2.27, 6-{[(1R)-1-cyclopropylethyl]amino}-8-[4-(trifluoromethoxy)phenyl]-7-[4-(trifluoromethyl)benzyl]-7H-purine-2-carboxylic acid]
Second: C[C@@H](Nc1nc(C(=O)O)nc2nc(-c3ccccc3OC(F)(F)F)n(Cc3ccc(C(F)(F)F)cc3)c12)C1CC1 [Example 2.34, 6-{[(1R)-1-cyclopropylethyl]amino}-8-[2-(trifluoromethoxy)phenyl]-7-[4-(trifluoromethyl)benzyl]-7H-purine-2-carboxylic acid]
The IC50 of the first is 54-fold higher: 1140 nM for the first, 21 nM for the second.

Going from COc1cc(OC)cc(-c2nc3nc(C(=O)O)nc(N[C@H](C)C4CC4)c3n2Cc2ccc(C(F)(F)F)cc2)c1 [Example 2.28, 6-{[(1R)-1-cyclopropylethyl]amino}-8-(3,5-dimethoxyphenyl)-7-[4-(trifluoromethyl)benzyl]-7H-purine-2-carboxylic acid] to Cc1cc(C)cc(-c2nc3nc(C(=O)O)nc(N[C@H](C)C4CC4)c3n2Cc2ccc(C(F)(F)F)cc2)c1 [Example 2.50, 6-{[(1R)-1-cyclopropylethyl]amino}-8-(3,5-dimethylphenyl)-7-[4-(trifluoromethyl)benzyl]-7H-purine-2-carboxylic acid], the IC50 falls from 455 nM to 120 nM (3.8-fold).

Compared with C[C@@H](Nc1nc(C(=O)O)nc2nc(-c3cccc(N(C)C)c3)n(Cc3ccc(C(F)(F)F)cc3)c12)C1CC1 [Example 2.29, 6-{[(1R)-1-cyclopropylethyl]amino}-8-[3-(dimethylamino)phenyl]-7-[4-(trifluoromethyl)benzyl]-7H-purine-2-carboxylic acid], C[C@@H](Nc1nc(C(=O)O)nc2nc(-c3cccc(N(C)C)c3)n(Cc3ccc(C(F)(F)F)cc3)c12)C1CCC1 [Example 2.37, 6-{[(1R)-1-cyclobutylethyl]amino}-8-[3-(dimethylamino)phenyl]-7-[4-(trifluoromethyl)benzyl]-7H-purine-2-carboxylic acid] is 16-fold lower in IC50: 105 nM for the first, 6.6 nM for the second.

Going from Cc1ccccc1-c1nc2nc(C(=O)O)nc(N[C@H](C)C3CC3)c2n1Cc1ccc(C(F)(F)F)cc1 [Example 2.30, 6-{[(1R)-1-cyclopropylethyl]amino}-8-(2-methylphenyl)-7-[4-(trifluoromethyl)benzyl]-7H-purine-2-carboxylic acid] to C[C@@H](Nc1nc(C(=O)O)nc2nc(-c3ccccc3F)n(Cc3ccc(C(F)(F)F)cc3)c12)C1CCC1 [Example 2.47, 6-{[(1R)-1-cyclobutylethyl]amino}-8-(2-fluorophenyl)-7-[4-(trifluoromethyl)benzyl]-7H-purine-2-carboxylic acid], the IC50 falls from 140 nM to 26 nM (5.4-fold). The second is the more potent here.

Going from C[C@@H](Nc1nc(C(=O)O)nc2nc(-c3ccc(Cl)c(Cl)c3)n(Cc3ccc(C(F)(F)F)cc3)c12)C1CC1 [Example 2.31, 6-{[(1R)-1-cyclopropylethyl]amino}-8-(3,4-dichlorophenyl)-7-[4-(trifluoromethyl)benzyl]-7H-purine-2-carboxylic acid] to Cc1ccc(-c2nc3nc(C(=O)O)nc(N[C@H](C)C4CC4)c3n2Cc2ccc(C(F)(F)F)cc2)cn1 [Example 2.36, 6-{[(1R)-1-cyclopropylethyl]amino}-8-(6-methylpyridin-3-yl)-7-[4-(trifluoromethyl)benzyl]-7H-purine-2-carboxylic acid], the IC50 rises from 154 nM to 1300 nM (8.4-fold). The first is the more potent here.

Compared with C[C@@H](Nc1nc(C(=O)O)nc2nc(-c3ccc(C(C)(C)C)cc3)n(Cc3ccc(C(F)(F)F)cc3)c12)C1CC1 [Example 2.32, 8-(4-tert-butylphenyl)-6-{[(1R)-1-cyclopropylethyl]amino}-7-[4-(trifluoromethyl)benzyl]-7H-purine-2-carboxylic acid], COc1ccc(-c2nc3nc(C(=O)O)nc(N[C@H](C)C4CC4)c3n2Cc2ccc(C(F)(F)F)cc2)cn1 [Example 2.48, 6-{[(1R)-1-cyclopropylethyl]amino}-8-(6-methoxypyridin-3-yl)-7-[4-(trifluoromethyl)benzyl]-7H-purine-2-carboxylic acid] is 2.9-fold lower in IC50: 1950 nM for the first, 680 nM for the second. The second is the more potent here.

C[C@@H](Nc1nc(C(=O)O)nc2nc(-c3cnn(C)c3)n(Cc3ccc(C(F)(F)F)cc3)c12)C1CC1 [Example 2.35, 6-{[(1R)-1-cyclopropylethyl]amino}-8-(1-methyl-1H-pyrazol-4-yl)-7-[4-(trifluoromethyl)benzyl]-7H-purine-2-carboxylic acid] and C[C@@H](Nc1nc(C(=O)O)nc2nc(-c3cccnc3)n(Cc3ccc(C(F)(F)F)cc3)c12)C1CC1 [Example 2.44, 6-{[(1R)-1-cyclopropylethyl]amino}-8-pyridin-3-yl-7-[4-(trifluoromethyl)benzyl]-7H-purine-2-carboxylic acid] are within 1.5-fold of each other in IC50: 510 nM for the first, 640 nM for the second.

CNS(=O)(=O)c1ccc(-c2nc3nc(C(=O)O)nc(N[C@H](C)C4CCC4)c3n2Cc2ccc(C(F)(F)F)cc2)cc1 [Example 2.41, 6-{[(1R)-1-cyclobutylethyl]amino}-8-[4-(methylsulfamoyl)phenyl]-7-[4-(trifluoromethyl)benzyl]-7H-purine-2-carboxylic acid] and C[C@@H](Nc1nc(C(=O)O)nc2nc(-c3cccc(C#N)c3)n(Cc3ccc(C(F)(F)F)cc3)c12)C1CCC1 [Example 2.45, 8-(3-cyanophenyl)-6-{[(1R)-1-cyclobutylethyl]amino}-7-[4-(trifluoromethyl)benzyl]-7H-purine-2-carboxylic acid] are within 1.5-fold of each other in IC50: 44 nM for the first, 63 nM for the second.

Compared with C[C@@H](Nc1nc(C(=O)O)nc2nc(C3CC3)n(Cc3ccc(Cl)cc3)c12)C1CC1 [Example 2.42, 7-(4-chlorobenzyl)-8-cyclopropyl-6-{[(1R)-1-cyclopropylethyl]amino}-7H-purine-2-carboxylic acid], C[C@@H](Nc1nc(C(=O)O)nc2nc(Cc3ccccc3)n(Cc3ccc(Cl)cc3)c12)C1CC1 [Example 2.43, 8-benzyl-7-(4-chlorobenzyl)-6-{ [(1R)-1-cyclopropylethyl]amino}-7H-purine-2-carboxylic acid] is 9.4-fold lower in IC50: 265 nM for the first, 28.1 nM for the second.

First: COc1ncc(-c2nc3nc(C(=O)O)nc(N[C@H](C)C4CCC4)c3n2Cc2ccc(C(F)(F)F)cc2)cc1Cl [Example 2.46, 8-(5-chloro-6-methoxypyridin-3-yl)-6-{[(1R)-1-cyclobutylethyl]amino}-7-[4-(trifluoromethyl)benzyl]-7H-purine-2-carboxylic acid]
Second: COc1ncc(-c2nc3nc(C(=O)O)nc(N[C@H](C)C4CC4)c3n2Cc2ccc(C(F)(F)F)cc2)cc1F [Example 2.49, 6-{[(1R)-1-cyclopropylethyl]amino}-8-(5-fluoro-6-methoxypyridin-3-yl)-7-[4-(trifluoromethyl)benzyl]-7H-purine-2-carboxylic acid]
The IC50 of the first is 6.1-fold lower: 51 nM for the first, 310 nM for the second.
